# In PubChem BioAssay (NCI):
#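 How tested: cells in 96-well plates exposed to compound for 48 hours at five concentrations. TGI: total growth inhibition.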
# How the values were obtained:
# Experiment in all cases: NCI-60 cell line screen, 48 h
# A549 NSCLC = system: A549 NSCLC
# BT-549 breast = system: BT-549 breast
# HCC-2998 colon = system: HCC-2998 colon
# HS 578T breast = system: HS 578T breast
# HT29 colon = system: HT29 colon
# M14 melanoma = system: M14 melanoma
# MDA-MB-231 breast = system: MDA-MB-231 breast
# MDA-MB-435 = system: MDA-MB-435
# MOLT-4 leukemia = system: MOLT-4 leukemia
# NCI-H23 lung = system: NCI-H23 lung
# NCI/ADR-RES ovarian = system: NCI/ADR-RES ovarian
# OVCAR-5 ovarian = system: OVCAR-5 ovarian
# PC-3 prostate = system: PC-3 prostate
# SK-MEL-5 melanoma = system: SK-MEL-5 melanoma
# SNB-19 CNS = system: SNB-19 CNS
# T-47D breast = system: T-47D breast
# U251 CNS = system: U251 CNS
# UO-31 renal = system: UO-31 renal
# LOX IMVI melanoma = system: LOX IMVI melanoma
# MALME-3M melanoma = system: MALME-3M melanoma
Compound,TGI (A549 NSCLC) [µM],TGI (BT-549 breast) [µM],TGI (HCC-2998 colon) [µM],TGI (HS 578T breast) [µM],TGI (HT29 colon) [µM],TGI (M14 melanoma) [µM],TGI (MDA-MB-231 breast) [µM],TGI (MDA-MB-435) [µM],TGI (MOLT-4 leukemia) [µM],TGI (NCI-H23 lung) [µM],TGI (NCI/ADR-RES ovarian) [µM],TGI (OVCAR-5 ovarian) [µM],TGI (PC-3 prostate) [µM],TGI (SK-MEL-5 melanoma) [µM],TGI (SNB-19 CNS) [µM],TGI (T-47D breast) [µM],TGI (U251 CNS) [µM],TGI (UO-31 renal) [µM],TGI (LOX IMVI melanoma) [µM],TGI (MALME-3M melanoma) [µM]
CC(=O)N(CCCCNC(=O)C(F)(F)F)CCCNC(=O)C(F)(F)F,> 100,> 100,> 100,> 100,> 100,> 100,> 100,> 100,> 100,> 100,> 100,> 100,> 100,> 100,> 100,> 100,> 100,> 100,,
Cc1cc(-c2cscn2)c(O)c([N+](=O)[O-])c1,> 100,> 100,> 100,> 100,> 100,> 100,,> 100,,> 100,> 100,> 100,> 100,> 100,> 100,,,> 100,> 100,> 100
CC(NC(=O)OC(C)(C)C)C(=O)NC(Cc1ccccc1)C(=O)NCC(=O)Oc1c(Cl)c(Cl)c(Cl)c(Cl)c1Cl (centres undefined),48.1,69.3,30.6,> 100,73.2,73.8,36,,59.3,40.7,,42.8,49.4,27.4,> 100,,46.7,33.9,,49.2
O=C(O)c1nc2ccccc2nc1NCc1ccc(F)cc1,> 100,> 100,> 100,> 100,> 100,> 100,> 100,> 100,> 100,> 100,> 100,> 100,> 100,> 100,> 100,> 100,> 100,> 100,> 100,
C=C(CO)[C@H]1Oc2ccc(C(C)=O)cc2[C@@H]1O,> 100,> 100,> 100,> 100,> 100,> 100,> 100,> 100,> 100,> 100,,> 100,> 100,> 100,> 100,> 100,> 100,> 100,> 100,> 100
COc1c(Br)cc(/C=C(\C#N)c2ccccn2)cc1Br,> 100,94.8,> 100,,> 100,> 100,,,> 100,> 100,> 100,> 100,> 100,> 100,> 100,,> 100,> 100,,> 100
CCCCc1ccc(Nc2nc(Cl)c3ncn(C4CC(Oc5ccc(C)cc5)C(COc5ccc(C)cc5)O4)c3n2)cc1 (centres undefined),> 100,> 100,> 100,> 100,> 100,> 100,> 100,> 100,> 100,> 100,> 100,> 100,,> 100,> 100,> 100,,> 100,> 100,> 100
Cc1cccc(C)c1N1C(=O)C2c3[nH]c4ccccc4c3C3CCC(C(C)(C)C)CC3C2C1=O (centres undefined),> 100,38.2,14.9,44,32,32,24.4,> 100,> 100,39.8,48.8,55.9,20.6,28.6,> 100,,36.6,26,23.6,28.2
CNc1ncnc2c1cnn2CCCCO,> 100,> 100,> 100,> 100,> 100,> 100,> 100,> 100,> 100,> 100,,> 100,> 100,> 100,> 100,> 100,> 100,> 100,> 100,> 100
O=C(NCCCNCCCCNCCCNC(=O)c1cc(-c2ccccc2)nc2ccccc12)c1cc(-c2ccccc2)nc2ccccc12,4.88,15.5,4.61,4.32,3.57,5.23,> 100,,3.73,> 24.1,74.2,5.26,4.33,26.3,,12.1,,40,3.12,4.01
Cc1cccc(/C=N/NC(=S)N(C)CCc2ccccn2)n1,> 100,> 100,> 100,> 100,> 100,2.38,> 100,> 100,> 100,> 100,,> 100,> 100,9.4,> 100,> 100,> 100,2.36,> 100,> 54
CC(C)(C)OC(=O)NC(CS(=O)(=O)O)C(=O)O (centres undefined),> 100,> 100,> 100,,> 100,> 100,> 100,> 100,> 100,> 100,> 100,> 100,> 100,> 100,> 100,> 100,> 100,> 100,> 100,> 100
CCOC(=O)C(NC(=O)c1cccc(Cl)c1)(N1CCN(c2cc3c(cc2F)c(=O)c(C(=O)O)cn3C2CC2)CC1)C(F)(F)F (centres undefined),50.5,38.4,34.8,58,,33.2,34.2,28.8,15.9,37.1,,31.1,34.6,25.5,84.9,48.9,18.3,47.3,,32.2
COC(=O)C(/C(=N/N)C(=O)Nc1cccc(O)c1)c1nc2ccccc2[nH]c1=O (centres undefined),> 100,> 100,> 100,> 100,> 100,> 100,> 100,> 100,> 100,> 100,> 100,> 100,> 100,> 100,> 100,> 100,> 100,> 100,> 100,
O=c1c2cc(S(=O)(=O)Nc3ccc(Cl)cc3Cl)ccc2ncn1NS(=O)(=O)c1cccc2ccccc12,> 100,80.6,> 100,> 100,> 100,> 100,> 100,> 100,85.5,> 100,> 100,> 100,> 100,,> 100,,> 100,62.3,50,> 100
O=S(=O)(Oc1ccc2ccccc2c1-c1c(OS(=O)(=O)C(F)(F)F)ccc2ccccc12)C(F)(F)F,> 100,> 100,> 100,> 100,> 100,> 100,> 100,> 100,> 100,> 100,> 100,> 100,> 100,> 100,> 100,,> 100,> 100,,> 100
Clc1ccc(-c2nc3ccc4ccccc4c3c3c2CCCC3)cc1,> 100,> 100,> 100,> 100,> 100,> 100,> 100,> 100,> 100,> 100,> 100,> 100,,> 100,> 100,,> 100,> 100,,> 100
Cc1cc2cc3ccccc3cc2c(=O)[nH]1,> 10,> 10,,> 10,> 10,> 10,,> 10,> 10,> 10,,> 10,> 10,,> 10,,> 10,> 10,> 10,
CCCCCCC1CC(=O)C1(Cl)Cl (centres undefined),> 100,48.6,57.4,> 100,66.8,62.6,68.5,,52.1,57.7,> 100,> 100,> 100,31.2,> 100,> 100,> 100,34.2,44.6,38.8
Cc1c/c(=N/NC(=O)c2ccncc2)n2nc(N)sc2n1,> 100,> 100,> 100,,> 100,> 100,> 100,> 100,> 100,> 100,> 100,> 100,> 100,> 100,> 100,,> 100,> 100,> 100,
COc1ccc(Nc2nc3ccc(C(F)(F)F)cc3nc2C(=O)O)cc1,> 100,49.4,50,,> 100,> 100,> 100,> 100,98.6,93.3,> 100,84.9,92.4,> 100,,> 100,> 100,,> 100,> 100
C[N+](C)(C)CCOP(=O)([O-])OCCNC(=O)c1ccc2ccccc2c1,> 100,> 100,> 100,,> 100,> 100,> 100,> 100,> 100,> 100,> 100,> 100,> 100,> 100,> 100,> 100,> 100,> 100,> 100,> 100
O=C(NNC(=O)c1ccccc1O)c1ccco1,> 100,> 100,,> 100,> 100,> 100,> 100,> 100,> 100,,> 100,> 100,> 100,> 100,> 100,> 100,> 100,> 100,> 100,> 100
N#CCC1(c2ccc(Cl)cc2)NC(=O)c2ccccc21 (centres undefined),> 100,> 100,,> 100,> 100,> 100,> 100,> 100,> 100,> 100,> 100,> 100,> 100,> 100,> 100,> 100,> 100,> 100,> 100,> 100
CC(=O)O[C@H]1C(=O)[C@@]2(C)C(C(OC(=O)c3ccccc3)[C@]3(O)CC(OC(=O)C(O)C(NC(=O)c4ccccc4)c4cccc(Cl)c4)C(C)=C1C3(C)C)[C@]1(OC(C)=O)CO[C@@H]1C[C@@H]2O (some centres undefined),> 10,> 10,> 10,,> 10,> 10,> 10,5.06,> 10,> 10,> 10,> 10,> 10,> 10,> 10,> 10,> 10,,> 10,> 10
